From ChEMBL document CHEMBL1149910, “2-(6-aryl-3(Z)-hexen-1,5-diynyl)anilines as a new class of potent antitubulin agents” (J Med Chem, 2008)

Test system: MDA-MB-231 (Homo sapiens)
Assay: Induction of apoptosis in human MDA-MB-231 cells assessed as induction of caspase 9 activation at 36 uM after 72 hrs by colorimetric assay relative to control

Q: For `Nc1ccccc1C#C/C=C\C#Cc1ccccc1C(F)(F)F`, which “fold change (FC)” value is on record?
A: 3.9
